Measured values: PubChem BioAssay (NCI)
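Values below derive from 48-hour exposures of cells grown in 96-well plates, with endpoints linearly interpolated between the two concentrations bracketing the appropriate inhibition level. At the GI50, growth is halved. The concentration for full growth arrest is given as TGI.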

Tests used:
Experiment in all cases: growth of human tumour cells (NCI), 48 h
HT29 colon = system: HT29 colon
M14 melanoma = system: M14 melanoma
SK-MEL-2 melanoma = system: SK-MEL-2 melanoma
IGROV1 ovarian = system: IGROV1 ovarian
U251 CNS = system: U251 CNS
MCF7 breast = system: MCF7 breast
OVCAR-3 ovarian = system: OVCAR-3 ovarian
SN12C renal = system: SN12C renal
NCI/ADR-RES ovarian = system: NCI/ADR-RES ovarian
TK-10 renal = system: TK-10 renal

Row | Compound | TGI (HT29 colon) | TGI (M14 melanoma) | TGI (SK-MEL-2 melanoma) | TGI (IGROV1 ovarian) | TGI (U251 CNS) | TGI (MCF7 breast) | TGI (OVCAR-3 ovarian) | TGI (SN12C renal) | TGI (NCI/ADR-RES ovarian) | TGI (TK-10 renal) | GI50 (HT29 colon) | GI50 (TK-10 renal) | GI50 (SK-MEL-2 melanoma) | GI50 (IGROV1 ovarian) | GI50 (U251 CNS) | GI50 (MCF7 breast) | GI50 (OVCAR-3 ovarian) | GI50 (SN12C renal) | GI50 (NCI/ADR-RES ovarian)
1 | Cc1ccc(C(=O)Nc2ccc(S(=O)(=O)O)c3cc(S(=O)(=O)O)cc(S(=O)(=O)O)c23)cc1NC(=O)c1cccc(NC(=O)Nc2cccc(C(=O)Nc3cc(C(=O)Nc4ccc(S(=O)(=O)O)c5cc(S(=O)(=O)O)cc(S(=O)(=O)O)c45)ccc3C)c2)c1 (tested in a mixture with another compound) | > 50 µM | > 50 µM | > 50 µM | > 50 µM | > 50 µM | > 50 µM | > 50 µM | > 50 µM | > 50 µM | – | – | – | – | – | – | – | – | – | –
2 | COC(=O)c1ccccc1C1CN=NC12Cc1cccc(C)c1C2=O (configuration not stated) | > 100 µM | – | > 100 µM | > 100 µM | > 100 µM | 91.9 µM | 82.1 µM | > 100 µM | 45.7 µM | > 100 µM | – | – | – | – | – | – | – | – | –
3 | c1ccc(N=C2SC3=NCCN3C2=Nc2ccccc2)cc1 | 41.3 µM | 37.8 µM | 76.5 µM | – | 33.5 µM | 24.9 µM | 36 µM | 70 µM | > 100 µM | – | – | – | – | – | – | – | – | – | –
4 | CCCCCCC(C)OC(=O)/C=C(\CC(=O)OC(C)CCCCCC)C(=O)OC(C)CCCCCC (configuration not stated) | > 100 µM | > 100 µM | > 100 µM | > 100 µM | > 100 µM | – | > 100 µM | > 100 µM | – | > 100 µM | – | – | – | – | – | – | – | – | –
5 | COc1cc(C2c3cc4c(cc3[C@@H](Nc3cccc([N+](=O)[O-])c3)C3COC(=O)[C@H]23)OCO4)cc(OC)c1O (some centres not stated) | 13.1 µM | – | 36.5 µM | > 84.4 µM | – | > 100 µM | 33.2 µM | > 22.2 µM | > 54.2 µM | – | – | – | – | – | – | – | – | – | –
6 | NC(=O)CC(N=C1C(=O)OC(C(O)CO)C1=NC(CC(N)=O)C(=O)O)C(=O)O (configuration not stated) | > 100 µM | > 100 µM | > 100 µM | > 100 µM | > 100 µM | > 100 µM | – | > 100 µM | > 100 µM | > 100 µM | – | – | – | – | – | – | – | – | –
7 | C#CC(O)/C=C/C(O)CCCC(O)CC#CC(O)C#CC(O)CCCC(O)/C=C/CCCC(=O)CCCCCCCCCCCCCCCC(O)C(O)C#CC(=O)O (configuration not stated) | > 50 µM | > 50 µM | > 50 µM | 21.1 µM | > 50 µM | > 50 µM | – | > 50 µM | > 50 µM | > 50 µM | – | – | – | – | – | – | – | – | –
8 | CC[C@@]12C=CC(=S)N(CCSc3ccccc3)[C@@H]1c1c(n(S(=O)(=O)c3ccc(OC)cc3)c3ccccc13)CC2 | > 100 µM | > 100 µM | > 100 µM | – | > 100 µM | > 100 µM | > 100 µM | > 100 µM | > 100 µM | > 100 µM | – | – | – | – | – | – | – | – | –
9 | CCN(CC)CCCC(C)NC(=O)c1ccc2c(c1)C(=O)c1ccccc1C2=O (configuration not stated) | 53 µM | 33.3 µM | 38.9 µM | 55.3 µM | 50.4 µM | – | 32.2 µM | 37.6 µM | – | 66.5 µM | – | – | – | – | – | – | – | – | –
10 | CCc1nc2ccc(C(F)(F)F)cc2[nH]c1=O | > 100 µM | > 100 µM | > 100 µM | – | > 100 µM | > 100 µM | > 100 µM | > 100 µM | > 100 µM | > 100 µM | – | – | – | – | – | – | – | – | –
11 | Oc1ccc(C#CCOc2ccccc2)cc1CNCCN(Cc1ccccn1)Cc1ccccn1 | 12.6 µM | – | 4.85 µM | 1.66 µM | 5.16 µM | 4.43 µM | 3.04 µM | 2.65 µM | 6.68 µM | 3.06 µM | 2.54 µM | 1.22 µM | 2.08 µM | 0.45 µM | 0.668 µM | 1.07 µM | 1.47 µM | 1.08 µM | 1.83 µM
12 | CC(C)(C)c1ccc(C(C)(C)C)c(N2C(=O)C3ON=C(c4ccc([N+](=O)[O-])cc4)C3C2=O)c1 (configuration not stated) | > 25 µM | > 25 µM | – | 19.4 µM | – | > 25 µM | > 25 µM | > 25 µM | > 25 µM | > 25 µM | – | – | – | – | – | – | – | – | –
13 | O=[N+]([O-])c1c2nc3n(c2cc2c1nc1n2CCC1)CCC3 | > 100 µM | > 100 µM | – | > 100 µM | > 100 µM | > 100 µM | > 100 µM | > 100 µM | > 100 µM | > 100 µM | – | – | – | – | – | – | – | – | –
14 | CC(=O)OCC1=C(C)C[C@H]([C@@H](COC(C)=O)C2CCC3C4C[C@H]5O[C@]56CC=CC(=O)[C@]6(C)C4CC[C@@]32C)OC1=O (some centres not stated) | 0.508 µM | 0.785 µM | 1.64 µM | 0.849 µM | 1.05 µM | 2.09 µM | 0.553 µM | 1.18 µM | – | 19.2 µM | – | – | – | – | – | – | – | – | –
15 | c1ccc2nc(CCC3CCCCN3)ccc2c1 (configuration not stated) | > 100 µM | > 100 µM | > 100 µM | > 100 µM | > 100 µM | > 100 µM | – | > 100 µM | > 100 µM | > 100 µM | – | – | – | – | – | – | – | – | –
16 | CC(NC(C#N)CC12CC3CC(CC(C3)C1)C2)c1ccccc1 (configuration not stated) | > 100 µM | > 100 µM | – | > 100 µM | > 100 µM | > 100 µM | 71.9 µM | – | > 100 µM | > 100 µM | – | – | – | – | – | – | – | – | –
17 | CS(=O)(=O)OCCCOS(C)(=O)=O | > 100 µM | > 100 µM | > 100 µM | > 100 µM | > 100 µM | – | > 100 µM | > 100 µM | – | > 100 µM | – | – | – | – | – | – | – | – | –
18 | NC(=O)c1nnsc1NC=O | > 100 µM | > 100 µM | > 100 µM | > 100 µM | > 100 µM | > 100 µM | – | > 100 µM | > 100 µM | – | – | – | – | – | – | – | – | – | –
19 | NS(=O)(=O)c1nnc(NS(=O)(=O)c2ccccc2C(=O)O)s1 | > 100 µM | > 100 µM | > 100 µM | – | > 100 µM | > 100 µM | > 100 µM | > 100 µM | > 100 µM | > 100 µM | – | – | – | – | – | – | – | – | –
20 | O=C1ON=C2C3CC4CC12CC1(C3)C(=O)ON=C41 | > 100 µM | > 100 µM | > 100 µM | > 100 µM | > 100 µM | > 100 µM | > 100 µM | > 100 µM | > 100 µM | – | – | – | – | – | – | – | – | – | –
21 | O=C1c2ccccc2C(=O)c2c(O)ccc(O)c21 | > 100 µM | > 100 µM | > 100 µM | > 100 µM | > 100 µM | – | 94.1 µM | > 100 µM | – | > 100 µM | – | – | – | – | – | – | – | – | –
22 | COc1ccccc1NC(=O)O/N=C(/Cl)C(C)C | 15.3 µM | 20.3 µM | 31 µM | 32.7 µM | 30.6 µM | – | 16.3 µM | 31.7 µM | 35.5 µM | 26.5 µM | – | – | – | – | – | – | – | – | –
